Data as given in US10647694B2, “Diphenylaminopyrimidine and triazine compound, and pharmaceutical composition and use thereof” (ARROMAX PHARMATECH CO., LTD., priority 2016, dated 2020).

Molecular target: ALK enzyme (Homo sapiens, UniProt Q9UM73)
Experiment: In-vitro ALK kinase inhibitory activity (HTRF kinEASE TK kit)
Type: biochemical
Details: inhibitory activity for ALK enzyme, read-out: IC50 range
Procedure: Anaplastic Lymphoma Kinase (ALK) Inhibitory Activity The in-vitro kinase assay was performed using the HTRF kinEASE TK kit available from Cisbio. The operation steps are indicated in the instructions of the kit. This method was used to detect the inhibitory effect of the compound to be tested on the activity of ALK enzymes in vitro, including wild-type ALK (Cat.PV3867, Invitrogen), ALK L1196M (Cat. PV6168, Life technologies), and ALK F1174L (Cat. PV6160, Life technologies). The specific operation steps were as follows. […] In addition to the control wells, 4 μL of the diluted compound solution to be tested was added to the reaction wells, and 4 μL of the 2.5% DMSO solution corresponding to the ALK enzyme previously formulated was added to the control wells. (2) 2 μL of a TK-biotin substrate solution previously formulated in a substrate concentration corresponding to the ALK enzyme was added to all reaction wells. (3) 2 μL of a previously prepared enzyme solution of corresponding concentration was added to all the reaction wells except the negative wells, and 2 μL of the 1× kinase buffer corresponding to the enzyme was added to the negative wells to make up the volume. The plate was sealed with a membrane, and incubated for 10 min at room temperature after mixing uniformly, such that the compounds were bond to the enzyme fully. (4) 2 μL of an ATP solution in a concentration corresponding to the ALK enzyme was added to all the reaction wells to initiate the kinase reaction, where the enzyme reaction time by ALK was 60 minutes. (5) An ALK test solution was prepared 5 minutes before the end of the kinase reaction. Streptavidin-XL665 and TK antibody europium cryptate (1:100) solutions for assay having a concentration corresponding to the enzyme were prepared using the detection buffer in the kit. (6) After the completion of the kinase reaction, 5 μl of diluted Streptavidin-XL665 was added to all the reaction wells respectively, and mixed uniformly, and then the diluted TK antibody europium cryptate solution for assay was added immediately. (7) The plate was sealed, mixed uniformly and allowed to react at room temperature for 1 h. The fluorescence signal (excitation at 320 nm, and emission at 665 nm and 615 nm) was detected using the ENVISION instrument (Perkinelmer). The inhibition rate for each well was calculated from the values of the fully active wells and the background signal wells. The values of replicated wells were averaged, and the half-maximal inhibitory activity (IC50) of each compound to be tested was fitted with a professional drawing analysis software PRISM 5.0.

Sequence of ALK enzyme (Q9UM73 19-1620 limits assumed): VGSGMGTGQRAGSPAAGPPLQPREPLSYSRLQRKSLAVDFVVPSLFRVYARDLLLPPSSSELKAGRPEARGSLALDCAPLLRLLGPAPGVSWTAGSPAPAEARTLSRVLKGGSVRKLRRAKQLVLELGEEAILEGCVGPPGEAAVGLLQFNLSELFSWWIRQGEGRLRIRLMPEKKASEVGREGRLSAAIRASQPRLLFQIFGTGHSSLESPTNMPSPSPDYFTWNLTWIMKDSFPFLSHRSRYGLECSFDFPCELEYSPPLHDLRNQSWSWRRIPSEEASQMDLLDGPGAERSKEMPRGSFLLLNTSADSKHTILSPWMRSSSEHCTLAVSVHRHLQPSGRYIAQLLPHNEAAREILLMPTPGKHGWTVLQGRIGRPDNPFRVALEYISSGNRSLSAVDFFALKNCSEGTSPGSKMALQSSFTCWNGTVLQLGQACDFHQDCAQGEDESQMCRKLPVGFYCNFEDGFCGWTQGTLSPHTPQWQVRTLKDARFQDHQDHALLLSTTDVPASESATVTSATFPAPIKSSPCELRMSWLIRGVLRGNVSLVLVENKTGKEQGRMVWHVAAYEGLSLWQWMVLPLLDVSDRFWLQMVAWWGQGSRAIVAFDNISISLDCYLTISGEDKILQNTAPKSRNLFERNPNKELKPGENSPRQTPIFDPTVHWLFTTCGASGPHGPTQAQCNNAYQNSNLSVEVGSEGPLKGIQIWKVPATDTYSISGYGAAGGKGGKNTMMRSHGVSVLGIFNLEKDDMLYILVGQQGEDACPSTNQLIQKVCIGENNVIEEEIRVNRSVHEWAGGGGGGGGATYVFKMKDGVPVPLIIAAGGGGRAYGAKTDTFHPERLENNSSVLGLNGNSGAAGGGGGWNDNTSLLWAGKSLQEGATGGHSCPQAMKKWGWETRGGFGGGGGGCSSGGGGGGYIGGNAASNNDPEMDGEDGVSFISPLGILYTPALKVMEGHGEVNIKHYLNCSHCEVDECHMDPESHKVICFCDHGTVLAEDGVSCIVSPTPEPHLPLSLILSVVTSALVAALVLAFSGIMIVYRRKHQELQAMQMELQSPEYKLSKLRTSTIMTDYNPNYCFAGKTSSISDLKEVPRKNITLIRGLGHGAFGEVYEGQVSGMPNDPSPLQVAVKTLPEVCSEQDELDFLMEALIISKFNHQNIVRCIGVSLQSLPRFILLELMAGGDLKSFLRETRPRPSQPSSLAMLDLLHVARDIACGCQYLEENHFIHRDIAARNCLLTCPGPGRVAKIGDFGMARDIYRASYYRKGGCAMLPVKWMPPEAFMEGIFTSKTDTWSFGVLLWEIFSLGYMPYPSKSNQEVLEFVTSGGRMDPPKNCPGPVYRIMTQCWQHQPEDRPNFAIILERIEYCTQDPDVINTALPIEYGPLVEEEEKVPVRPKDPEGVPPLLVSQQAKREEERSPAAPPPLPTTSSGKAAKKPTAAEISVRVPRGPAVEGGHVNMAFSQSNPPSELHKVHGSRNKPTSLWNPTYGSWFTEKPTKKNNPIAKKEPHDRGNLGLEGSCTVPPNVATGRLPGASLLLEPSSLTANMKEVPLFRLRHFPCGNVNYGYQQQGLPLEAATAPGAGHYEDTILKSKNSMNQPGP

Structure (SMILES)	IC50 [nM]
CCc1cc(Nc2ncc(Cl)c(Nc3ccccc3S(=O)(=O)C(C)C)n2)c(OC)cc1C1CCNCC1 [Compound 44, reference compound]	10 to 100
COc1cc(C2CCNCC2)c(C)cc1Nc1ncc(Cl)c(Nc2ccccc2S(=O)(=O)C(C)C)n1 [Compound 45, reference compound]	10 to 100
COc1cc(C2CCNCC2)c(C)cc1Nc1nccc(Nc2ccccc2S(=O)(=O)C(C)C)n1 [Compound I-1, N4-(2-(isopropylsulfonyl)phenyl)-N2-(2-D3-methoxy-5-methyl-4-(piperidin-4-yl)phenyl)pyrimidin-2,4-diamine]	1 to 10
COc1cc(C2CCNCC2)c(C)cc1Nc1ncc(F)c(Nc2ccccc2S(=O)(=O)C(C)C)n1 [Compound I-2, 5-fluoro-N4-(2-(isopropylsulfonyl)phenyl)-N2-(2-D3-methoxy-5-methyl-4-(piperidin-4-yl)phenyl)pyrimidin-2,4-diamine]	1 to 10
COc1cc(C2CCNCC2)c(C)cc1Nc1ncc(Br)c(Nc2ccccc2S(=O)(=O)C(C)C)n1 [Compound I-4, 5-bromo-N4-(2-(isopropylsulfonyl)phenyl)-N2-(2-D3-methoxy-5-methyl-4-(piperidin-4-yl)phenyl)pyrimidin-2,4-diamine]	1 to 10
[2H]C([2H])([2H])Oc1cc(C2CCNCC2)c(C)cc1Nc1ncc(C(F)(F)F)c(Nc2ccccc2S(=O)(=O)C(C)C)n1 [Compound I-5, N4-(2-(isopropylsulfonyl)phenyl)-N2-(2-methoxy-5-methyl-4-(piperidin-4-yl)phenyl)-5-(trifluoromethyl)pyrimidin-2,4-diamine]	1 to 10
COc1cc(C2CCNCC2)c(C)cc1Nc1ncc(C#N)c(Nc2ccccc2S(=O)(=O)C(C)C)n1 [Compound I-6]	1 to 10
COc1cc(C2CCNCC2)c(C)cc1Nc1ncc(OC)c(Nc2ccccc2S(=O)(=O)C(C)C)n1 [Compound I-7, N4-(2-(isopropylsulfonyl)phenyl)-5-methoxy-N2-(2-D3-methoxy-5-methyl-4-(piperidin-4-yl)phenyl)pyrimidin-2,4-diamine]	1 to 10
COc1cc(C2CCNCC2)c(C)cc1Nc1ncc(C)c(Nc2ccccc2S(=O)(=O)C(C)C)n1 [Compound I-8, N4-(2-(isopropylsulfonyl)phenyl)-N2-(2-D3-methoxy-5-methyl-4-(piperidin-4-yl)phenyl)-5-methylpyrimidin-2,4-diamine]	1 to 10
CCc1cnc(Nc2cc(C)c(C3CCNCC3)cc2OC)nc1Nc1ccccc1S(=O)(=O)C(C)C [Compound I-9, 5-ethyl-N4-(2-(isopropylsulfonyl)phenyl)-N2-(2-D3-methoxy-5-methyl-4-(piperidin-4-yl)phenyl)pyrimidin-2,4-diamine]	1 to 10
COc1cc(C2CCNCC2)c(C)cc1Nc1ncc([N+](=O)[O-])c(Nc2ccccc2S(=O)(=O)C(C)C)n1 [Compound I-10, N4-(2-(isopropylsulfonyl)phenyl)-N2-(2-D3-methoxy-5-methyl-4-(piperidin-4-yl)phenyl)-5-nitropyrimidin-2,4-diamine]	1 to 10
COc1cc(C2CCNCC2)c(C)cc1Nc1ncc(-c2ccccc2)c(Nc2ccccc2S(=O)(=O)C(C)C)n1 [Compound I-11, N4-(2-(isopropylsulfonyl)phenyl)-N2-(2-D3-methoxy-5-methyl-4-(piperidin-4-yl)phenyl)-5-phenylpyrimidin-2,4-diamine]	10 to 100
C=Cc1cnc(Nc2cc(C)c(C3CCNCC3)cc2OC)nc1Nc1ccccc1S(=O)(=O)C(C)C [Compound I-12, N4-(2-(isopropylsulfonyl)phenyl)-N2-(2-D3-methoxy-5-methyl-4-(piperidin-4-yl)phenyl)-5-ethenylpyrimidin-2,4-diamine]	1 to 10
C#Cc1cnc(Nc2cc(C)c(C3CCNCC3)cc2OC)nc1Nc1ccccc1S(=O)(=O)C(C)C [Compound I-13, 5-ethynyl-N4-(2-(isopropylsulfonyl)phenyl)-N2-(2-D3-methoxy-5-methyl-4-(piperidin-4-yl)phenyl)pyrimidin-2,4-diamine]	1 to 10
COc1cc(C2CCNCC2)ccc1Nc1ncc(Cl)c(Nc2ccccc2S(=O)(=O)C(C)C)n1 [Compound I-15, 5-chloro-N2-(2-D3-methoxy-4-(piperidin-4-yl)phenyl)-N4-(2-(isopropylsulfonyl)phenyl)pyrimidin-2,4-diamine]	1 to 10
COc1cc(N2CCNCC2)c(C)cc1Nc1ncc(Cl)c(Nc2ccccc2S(=O)(=O)C(C)C)n1 [Compound I-17, 5-chloro-N4-(2-(isopropylsulfonyl)phenyl)-N2-(2-D3-methoxy-4-(piperazin-1-yl)-5-methyl-phenyl)pyrimidin-2,4-diamine]	1 to 10
COc1cc(C2CCNCC2)c(Cl)cc1Nc1ncc(Cl)c(Nc2ccccc2S(=O)(=O)C(C)C)n1 [Compound I-18, 5-chloro-N2-(5-chloro-2-D3-methoxy-4-(piperidin-4-yl)phenyl)-N4-(2-(isopropylsulfonyl)phenyl)pyrimidin-2,4-diamine]	1 to 10
CCOc1cc(C2CCNCC2)c(Cl)cc1Nc1ncc(Cl)c(Nc2ccccc2S(=O)(=O)C(C)C)n1 [Compound I-19, 5-chloro-N2-(5-chloro-2-D5-ethoxy-4-(piperidin-4-yl)phenyl)-N4-(2-(isopropylsulfonyl)phenyl)pyrimidin-2,4-diamine]	1 to 10
CCOc1cc(C2CCNCC2)ccc1Nc1ncc(Cl)c(Nc2ccccc2S(=O)(=O)C(C)C)n1 [Compound I-20, 5-chloro-N2-(2-D5-ethoxy-4-(piperidin-4-yl)phenyl)-N4-(2-(isopropylsulfonyl)phenyl)pyrimidin-2,4-diamine]	1 to 10
COc1cc(C2CCNCC2)c(F)cc1Nc1ncc(Cl)c(Nc2ccccc2S(=O)(=O)C(C)C)n1 [Compound I-21, 5-chloro-N2-(5-fluoro-2-D3-methoxy-4-(piperidin-4-yl)phenyl)-N4-(2-(isopropylsulfonyl)phenyl)pyrimidin-2,4-diamine]	1 to 10
COc1cc(C2CCNCC2)c(C(F)(F)F)cc1Nc1ncc(Cl)c(Nc2ccccc2S(=O)(=O)C(C)C)n1 [Compound I-22, 5-chloro-N4-(2-(isopropylsulfonyl)phenyl)-N2-(2-D3-methoxy-4-(piperidin-4-yl)-5-(trifluoromethyl)phenyl)pyrimidin-2,4-diamine]	1 to 10
COc1cc(C2CCNCC2)c(C#N)cc1Nc1ncc(Cl)c(Nc2ccccc2S(=O)(=O)C(C)C)n1 [Compound I-23, 5-((5-chloro-4-((2-(isopropylsulfonyl)phenyl)amino)pyrimidin-2-yl)amino)-4-D3-methoxy-2-(piperidin-4-yl)benzonitrile]	1 to 10
COc1cc(N2CCC(N3CCN(C)CC3)CC2)ccc1Nc1nc(Nc2ccccc2S(=O)(=O)C(C)C)c2cc[nH]c2n1 [Compound I-24]	10 to 100
COc1cc(N2CCC(N3CCN(C)CC3)CC2)ccc1Nc1nc(Nc2ccccc2S(=O)(=O)C(C)C)c2[nH]ccc2n1 [Compound I-25]	10 to 100
COc1cc(N2CCC(N(C)C)CC2)ccc1Nc1nc(Nc2ccccc2S(=O)(=O)C(C)C)c2ccsc2n1 [Compound I-26, N2-(4-(4-(dimethylamino)piperidin-1-yl)-2-D3-methoxyphenyl)-N4-(2-(isopropylsulfonyl)phenyl)thieno[2,3-d]pyrimidin-2,4-diamine]	10 to 100
COc1cc(N2CCC(N(C)C)CC2)ccc1Nc1nc(Nc2ccccc2S(=O)(=O)C(C)C)c2sccc2n1 [Compound I-27, N2-(4-(4-(dimethylamino)piperidin-1-yl)-2-D3-methoxyphenyl)-N4-(2-(isopropylsulfonyl)phenyl)thieno[3,2-d]pyrimidin-2,4-diamine]	10 to 100
COc1cc(N2CCC(N3CCOCC3)CC2)ccc1Nc1nc(Nc2ccccc2S(=O)(=O)C(C)C)c2ccccc2n1 [Compound I-28, N4-(2-(isopropylsulfonyl)phenyl)-N2-(2-D3-methoxy-4-(4-morpholinopiperidin-1-yl)phenyl)quinazolin-2,4-diamine]	10 to 100
COc1cc(C2CCNCC2)c(C)cc1Nc1nc(Nc2ccccc2S(=O)(=O)C(C)C)c2ccccc2n1 [Compound I-29, N4-(2-(isopropylsulfonyl)phenyl)-N2-(2-D3-methoxy-5-methyl-4-(piperidin-4-yl)phenyl)quinazolin-2,4-diamine]	10 to 100
COc1cc(C2CCNCC2)c(C)cc1Nc1nc(Nc2ccccc2S(=O)(=O)C(C)C)c2cc[nH]c2n1 [Compound I-30, N4-(2-(isopropylsulfonyl)phenyl)-N2-(2-D3-methoxy-5-methyl-4-(piperidin-4-yl)phenyl)-7H-pyrrolo[2,3-d]pyrimidin-2,4-diamine]	10 to 100
